± gives the standard deviation of the averaged measurements.
Test: TIMS collisional cross section (CCS, N2) of the lipid ion; higher = larger ion cross section
Conditions: ionization mode: positive, one isomer drawn

Row | Compound | TIMS collisional cross section (sample type: HeLa) | TIMS collisional cross section (sample type: Liver) | TIMS collisional cross section (sample type: plasma)
1 | CCCCC/C=C\C/C=C\C/C=C\C/C=C\CCCC(=O)OC[C@H](COP(=O)(O)OCCN)OC(=O)CCCCCCC/C=C\CCCCCCCC [PE 20:4_18:1] (ion (formula + adduct): [C43H76NO8P+H] 1+) | 279.1 Å² | 280 ± 0.42 Å² | –
2 | CCCCC/C=C\C/C=C\C/C=C\C/C=C\CCCC(=O)OC[C@H](COP(=O)(O)OCCN)OC(=O)CCCCCCCCCCCCCCCCCCC [PE 20:4_20:0] (ion (formula + adduct): [C45H82NO8P+H] 1+) | – | 290.4 Å² | –
3 | CC/C=C\C/C=C\C/C=C\C/C=C\C/C=C\CCCC(=O)O[C@H](COC(=O)CCC/C=C\C/C=C\C/C=C\C/C=C\CCCCC)COP(=O)(O)OCCN [PE 20:4_20:5] (ion (formula + adduct): [C45H72NO8P+H] 1+) | 279.1 Å² | – | –
4 | CCCC/C=C\CCCCCCCCCCCC(=O)O[C@H](COC(=O)CCCCCCCCCCCCCCCCCCCCC)COP(=O)(O)OCCN [PE 22:0_18:1@] (ion (formula + adduct): [C45H88NO8P+H] 1+) | 294.9 Å² | – | –
5 | CC/C=C\C/C=C\C/C=C\C/C=C\C/C=C\C/C=C\CCC(=O)OC[C@H](COP(=O)(O)OCCN)OC(=O)CCCCCCC/C=C\CCCCCC [PE 22:6@_16:1] (ion (formula + adduct): [C43H72NO8P+H] 1+) | 275 Å² | – | –
6 | CC/C=C\C/C=C\C/C=C\C/C=C\C/C=C\C/C=C\CCC(=O)OC[C@H](COP(=O)(O)OCCN)OC(=O)CCCCCCC/C=C\CCCCCCCC [PE 22:6_18:1@] (ion (formula + adduct): [C45H76NO8P+H] 1+) | 281.9 Å² | – | –
7 | CC/C=C\C/C=C\C/C=C\C/C=C\C/C=C\C/C=C\CCC(=O)OC[C@H](COP(=O)(O)OCCN)OC(=O)CC/C=C\C/C=C\C/C=C\C/C=C\C/C=C\C/C=C\CC [PE 22:6_22:6] (ion (formula + adduct): [C49H74NO8P+H] 1+) | 286.7 Å² | – | –
8 | CCCCC/C=C\C/C=C\C/C=C\C/C=C\CCCC(=O)O[C@H](COCCCCCCCCCCCCCCCC)COP(=O)(O)OCCN [PE O- 16:0@_20:4] (ion (formula + adduct): [C41H76NO7P+H] 1+) | – | – | 275.8 Å²
9 | CCCCC/C=C\C/C=C\C/C=C\C/C=C\CCCC(=O)O[C@H](COCCCCCCCCCCCCCCCCCC)COP(=O)(O)OCCN [PE O- 18:0@_20:4] (ion (formula + adduct): [C43H80NO7P+H] 1+) | – | 284 Å² | –
10 | CCCCCCCC/C=C\CCCCCCCC(=O)O[C@H](CO/C=C\CCCCCCCCCCCCCC)COP(=O)(O)OCCN [PE P- 16:0@_18:1] (ion (formula + adduct): [C39H76NO7P+H] 1+) | 274 Å² | 274.1 Å² | 274.1 Å²
11 | CCCCCCCCC/C=C\CCCCCCCC(=O)O[C@H](CO/C=C\CCCCCCCCCCCCCC)COP(=O)(O)OCCN [PE P- 16:0@_19:1] (ion (formula + adduct): [C40H78NO7P+H] 1+) | 277.5 Å² | – | –
12 | CCCCCCCC/C=C\CCCCCCCCCC(=O)O[C@H](CO/C=C\CCCCCCCCCCCCCC)COP(=O)(O)OCCN [PE P- 16:0@_20:1] (ion (formula + adduct): [C41H80NO7P+H] 1+) | 280.8 Å² | – | –
13 | CCCCC/C=C\C/C=C\C/C=C\CCCCCCC(=O)O[C@H](CO/C=C\CCCCCCCCCCCCCC)COP(=O)(O)OCCN [PE P- 16:0@_20:3] (ion (formula + adduct): [C41H76NO7P+H] 1+) | 275.1 Å² | – | 276.2 Å²
14 | CCCCC/C=C\C/C=C\C/C=C\C/C=C\CCCCCC(=O)O[C@H](CO/C=C\CCCCCCCCCCCCCC)COP(=O)(O)OCCN [PE P- 16:0@_22:4] (ion (formula + adduct): [C43H78NO7P+H] 1+) | – | 281.6 Å² | 281.6 Å²
15 | CC/C=C\C/C=C\C/C=C\C/C=C\C/C=C\C/C=C\CCC(=O)O[C@H](CO/C=C\CCCCCCCCCCCCCC)COP(=O)(O)OCCN [PE P- 16:0@_22:6] (ion (formula + adduct): [C43H74NO7P+H] 1+) | 277.3 Å² | – | 277.4 Å²
16 | CCCCCCCCCCCCCC/C=C\OC[C@H](COP(=O)(O)OCCN)OC(=O)CCCCCCCCCCCCCCC [PE P- 16:0_16:0] (ion (formula + adduct): [C37H74NO7P+H] 1+) | 272 Å² | – | –
17 | CCCCCCCC/C=C\CCCCCCCC(=O)O[C@H](CO/C=C\CCCCCCCCCCCCCCCC)COP(=O)(O)OCCN [PE P- 18:0@_18:1] (ion (formula + adduct): [C41H80NO7P+H] 1+) | – | – | 281.4 Å²
18 | CCCCC/C=C\C/C=C\C/C=C\CCCCCCC(=O)O[C@H](CO/C=C\CCCCCCCCCCCCCCCC)COP(=O)(O)OCCN [PE P- 18:0@_20:3] (ion (formula + adduct): [C43H80NO7P+H] 1+) | 283.7 ± 0.71 Å² | – | 282.7 Å²
19 | CC/C=C\C/C=C\C/C=C\C/C=C\C/C=C\C/C=C\CCC(=O)O[C@H](CO/C=C\CCCCCCCCCCCCCCCC)COP(=O)(O)OCCN [PE P- 18:0@_22:6] (ion (formula + adduct): [C45H78NO7P+H] 1+) | – | 285 Å² | 284.2 Å²
20 | CCCCC/C=C\C/C=C\CCCCCCCC(=O)O[C@H](CO/C=C\CCCCCCCCCCCCCCCCCC)COP(=O)(O)OCCN [PE P- 20:0@_18:2] (ion (formula + adduct): [C43H82NO7P+H] 1+) | – | – | 285 Å²
21 | CCCCC/C=C\C/C=C\C/C=C\CCCCCCC(=O)O[C@H](CO/C=C\CCCCCCCCCCCCCCCCCC)COP(=O)(O)OCCN [PE P- 20:0@_20:3] (ion (formula + adduct): [C45H84NO7P+H] 1+) | 290.7 Å² | – | –
22 | CC/C=C\C/C=C\C/C=C\C/C=C\C/C=C\CCCC(=O)OC[C@H](COP(=O)(O)O[C@H]1C(O)C(O)C(O)[C@@H](O)C1O)OC(=O)CCCCCCCCCCCCCCCCC (some centres undefined) [PI 20:5_18:0@] (ion (formula + adduct): [C47H81O13P+H] 1+) | – | – | 308 Å²
23 | CCCCCCCCCCCCCCC(=O)OC[C@H](COP(=O)(O)OC[C@H](N)C(=O)O)OC(=O)CCCCCCCCCCCCC [PS 15:0_14:0] (ion (formula + adduct): [C35H68NO10P+Na] 1+) | – | 270.3 Å² | –

Now from value to compound:

Row | TIMS collisional cross section (sample type: HeLa) | TIMS collisional cross section (sample type: Liver) | TIMS collisional cross section (sample type: plasma) | Compound
24 | 280.6 Å² | 279.6 Å² | – | CCCCC/C=C\C/C=C\C/C=C\C/C=C\CCCC(=O)OC[C@H](COP(=O)(O)OCCN)OC(=O)CCC/C=C\C/C=C\C/C=C\C/C=C\CCCCC [PE 20:4_20:4] (ion (formula + adduct): [C45H74NO8P+H] 1+)
25 | – | 281.4 Å² | – | CC/C=C\C/C=C\C/C=C\C/C=C\C/C=C\CCCC(=O)OC[C@H](COP(=O)(O)OCCN)OC(=O)CCCCCCCCCCCCCCCCC [PE 20:5_18:0] (ion (formula + adduct): [C43H76NO8P+H] 1+)
26 | – | 289.7 Å² | – | CCCCC/C=C\C/C=C\C/C=C\C/C=C\CCCCCC(=O)OC[C@H](COP(=O)(O)OCCN)OC(=O)CCCCCCCCCCCCCCCCC [PE 22:4_18:0] (ion (formula + adduct): [C45H82NO8P+H] 1+)
27 | – | 281.4 Å² | – | CC/C=C\C/C=C\C/C=C\C/C=C\C/C=C\C/C=C\CCC(=O)OC[C@H](COP(=O)(O)OCCN)OC(=O)CCCCCCC/C=C\CCCCCCCC [PE 22:6_18:1] (ion (formula + adduct): [C45H76NO8P+H] 1+)
28 | – | 292.6 Å² | – | CC/C=C\C/C=C\C/C=C\C/C=C\C/C=C\C/C=C\CCC(=O)OC[C@H](COP(=O)(O)OCCN)OC(=O)CCCCCCCCCCCCCCCCCCC [PE 22:6_20:0] (ion (formula + adduct): [C47H82NO8P+H] 1+)
29 | 276 Å² | – | – | CCCCCCCC/C=C\CCCCCCCC(=O)O[C@H](COCCCCCCCCCCCCCCCC)COP(=O)(O)OCCN [PE O- 16:0@_18:1] (ion (formula + adduct): [C39H78NO7P+H] 1+)
30 | 281.6 Å² | – | – | CCCCC/C=C\C/C=C\C/C=C\C/C=C\C/C=C\CCC(=O)O[C@H](COCCCCCCCCCCCCCCCC)COP(=O)(O)OCCN [PE O- 16:0@_22:5] (ion (formula + adduct): [C43H78NO7P+H] 1+)
31 | 279.6 Å² | – | – | CC/C=C\C/C=C\C/C=C\C/C=C\C/C=C\C/C=C\CCC(=O)O[C@H](COCCCCCCCCCCCCCCCC)COP(=O)(O)OCCN [PE O- 16:0@_22:6] (ion (formula + adduct): [C43H76NO7P+H] 1+)
32 | 270.7 Å² | 270.5 Å² | 270.6 Å² | CCCCC/C=C\C/C=C\CCCCCCCC(=O)O[C@H](CO/C=C\CCCCCCCCCCCCCC)COP(=O)(O)OCCN [PE P- 16:0@_18:2] (ion (formula + adduct): [C39H74NO7P+H] 1+)
33 | – | 273.9 Å² | – | CCCCC/C=C\C/C=C\C/C=C\C/C=C\CCCC(=O)O[C@H](CO/C=C\CCCCCCCCCCCCCC)COP(=O)(O)OCCN [PE P- 16:0@_20:4] (ion (formula + adduct): [C41H74NO7P+H] 1+)
34 | – | 278 Å² | – | CCCCC/C=C\C/C=C\CCCCCCCC(=O)O[C@H](CO/C=C\CCCCCCCCCCCCCCCC)COP(=O)(O)OCCN [PE P- 18:0@_18:2] (ion (formula + adduct): [C41H78NO7P+H] 1+)
35 | 281.6 Å² | 281.6 Å² | 281.6 ± 0.14 Å² | CCCCC/C=C\C/C=C\C/C=C\C/C=C\CCCC(=O)O[C@H](CO/C=C\CCCCCCCCCCCCCCCC)COP(=O)(O)OCCN [PE P- 18:0@_20:4] (ion (formula + adduct): [C43H78NO7P+H] 1+)
36 | – | 288.7 Å² | – | CCCCC/C=C\C/C=C\C/C=C\C/C=C\CCCC(=O)O[C@H](CO/C=C\CCCCCCCCCCCCCCCCCC)COP(=O)(O)OCCN [PE P- 20:0@_20:4] (ion (formula + adduct): [C45H82NO7P+H] 1+)

— the supplement of paper PMC6965134
